Reference: PubChem BioAssay (NCI)
“And” between values parts separate entries of the source, which are not always exact repeats. Identical values can stand only once.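 Values below derive from 48-hour exposures of cells grown in 96-well plates, with endpoints linearly interpolated between the two concentrations bracketing the appropriate inhibition level. At the GI50, growth is halved. TGI: concentration producing complete growth inhibition.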

How the values were obtained:
Experiment in all cases: NCI tumour cell line growth inhibition, 48 h
[1] = system: DU-145 prostate
[2] = system: HOP-92 NSCLC
[3] = system: HS 578T breast
[4] = system: KM12 colon
[5] = system: NCI/ADR-RES ovarian
[6] = system: PC-3 prostate
[7] = system: RPMI-8226 leukemia
[8] = system: SK-MEL-2 melanoma
[9] = system: SN12C renal
[10] = system: U251 CNS

SMILES	TGI [1] [µM]	TGI [2]	TGI [3] [µM]	TGI [4]	TGI [5]	TGI [6] [µM]	TGI [7] [µM]	TGI [8]	TGI [9] [µM]	TGI [10] [µM]	GI50 [4] [µM]	GI50 [5] [µM]	GI50 [1] [µM]	GI50 [2] [µM]	GI50 [3] [µM]	GI50 [6] [µM]	GI50 [7] [µM]	GI50 [8] [µM]	GI50 [9] [µM]	GI50 [10] [µM]
C(=NCCN1CCOCC1)=NC1CCCCC1	> 100	> 100 µM	> 100	> 100 µM	> 100 µM	> 100	> 100	> 100 µM	> 100	> 100										
CN(C)CCNC(=O)c1cccc2ccc(-c3ccc(O)cc3)nc12	10.6	11.3 µM and 11.6 µM	13.4	16.8 µM and 14.9 µM	23.7 µM and 26.3 µM	8.86	8.56	15.9 µM and 9.73 µM	13.2	10.4	3.03	6.8								
O=C(O)COc1ccc2c(=O)c3sc4c(=O)c5ccccc5c(=O)c4c3c(=O)c2c1	5.34	43.2 µM	19.2	> 100 µM	> 100 µM	> 100	77.6	49.3 µM	29.8	32.8	24.3	29.9	2.15	18.9	3.4	26.8	27.6	19.8	12.3	13.7
Cc1cc(Nc2ccc(NC(=O)c3ccc(Nc4ccnc5ccccc45)cc3)cc2)nc(N)n1	5.16	6.59 µM	> 100		> 100 µM		> 100	94.7 µM	5.02			> 100	2.03	2.13	5.79		> 100	5.56	2.13	
COc1cccc(C2CC(C)(O)Oc3cc4c(cc32)OCO4)c1O (configuration not stated)	73.2	92.5 µM	51.6	52.3 µM	59.3 µM	> 100	> 78.2	> 80.4 µM	89.2	70.4										
Cc1ccc(S(=O)(=O)Nc2ccccc2C=O)cc1	> 100	13.1 µM	59.6	33.5 µM	59 µM	35.6	36	30.4 µM	45	30.2										
Cc1cc(C)c2c(n1)sc1c(Nc3ccc(Cl)cc3)ncnc12	> 100		> 100	> 100 µM	> 100 µM	> 100	> 100	> 100 µM	> 100	> 100	0.139	< 0.01	< 0.01	0.0288	> 100	0.199	0.0197	> 100	0.0312	< 0.01
Cc1ccc(SC2c3ccc(C)cc3Oc3nc(N)c(C#N)c(N)c32)cc1 (configuration not stated)	3.36	3.23 µM	7.64	6.6 µM	9.73 µM	3.74	5.12	3.71 µM		3.08	2.36	2.79	1.86	1.45	2.4	1.85	2.15	1.84		1.69
c1ccc2cc(-c3cc4ccccc4s3)ccc2c1		> 100 µM		> 100 µM			> 100	> 100 µM	> 100	> 100										
CN1CCN(C2CCN(C(=O)Nc3cc(Oc4ccc(NC(=O)C5(C(=O)Nc6ccc(F)cc6)CC5)c(F)c4)ccn3)CC2)CC1	> 10	> 2.54 µM	> 2.52	> 2.52 µM	> 10 µM	> 3.84	> 2.63	2.18 µM	> 7.82	> 10	0.292	> 8.16	1.41	0.483	0.688	1.01	1.62	0.744	0.855	
CC(C)(C)NNC(=O)CCn1[nH]c(=O)c(Cl)c(Cl)c1=O				> 100 µM			> 100	> 100 µM	> 100	> 100										
O=C1CCC(Cl)=CC2CCCN12 (configuration not stated)		> 100 µM					> 100	> 100 µM	> 100	> 100										
CC1(C)COC(C2(C)C(=O)C=C(c3ccccc3)c3ccccc32)=N1 (configuration not stated)		> 100 µM		> 100 µM			> 100	> 100 µM	> 100	> 100										
CC(=O)CCn1ncc(Cl)c(Cl)c1=O		34.1 µM		41.5 µM			> 100	28.4 µM	27.9											
CC(C)N(C(=O)C12C3C4C1C1C4(C#N)C3C12C#N)C(C)C (configuration not stated)		> 100 µM					> 100		> 100	> 100										
O=CCC1CCCCC1		> 100 µM		> 100 µM	> 100 µM	> 100	> 100	> 100 µM	> 100											
NC(=S)N/N=C/C(=O)O	> 100		> 100	> 100 µM	> 100 µM	> 100	> 100	> 100 µM	> 100	> 100	> 100	96.3	> 100		> 100	67.7	> 100	> 100	> 100	> 100
NC(N)=N/N=C/c1c(-c2ccsc2)nc2sccn12	31.4			24.5 µM	32.7 µM	26	20.7		29.7	30	12.1	16.9	16.4			13.2	4.83		15.7	15.8
